Assay results from ChEMBL document CHEMBL1128715, “Synthesis, resolution, and biological evaluation of the four stereoisomers of 4-methylglutamic acid: selective probes of kainate receptors” (J Med Chem, 1995).

Molecular target: Glutamate receptor ionotropic, NMDA 2C (Rattus norvegicus, UniProt Q00961)
Assay: Ability to inhibit [3H]CGS-19,755 binding to NMDA receptors.

Chain of Glutamate receptor ionotropic, NMDA 2C (Q00961 whole entry): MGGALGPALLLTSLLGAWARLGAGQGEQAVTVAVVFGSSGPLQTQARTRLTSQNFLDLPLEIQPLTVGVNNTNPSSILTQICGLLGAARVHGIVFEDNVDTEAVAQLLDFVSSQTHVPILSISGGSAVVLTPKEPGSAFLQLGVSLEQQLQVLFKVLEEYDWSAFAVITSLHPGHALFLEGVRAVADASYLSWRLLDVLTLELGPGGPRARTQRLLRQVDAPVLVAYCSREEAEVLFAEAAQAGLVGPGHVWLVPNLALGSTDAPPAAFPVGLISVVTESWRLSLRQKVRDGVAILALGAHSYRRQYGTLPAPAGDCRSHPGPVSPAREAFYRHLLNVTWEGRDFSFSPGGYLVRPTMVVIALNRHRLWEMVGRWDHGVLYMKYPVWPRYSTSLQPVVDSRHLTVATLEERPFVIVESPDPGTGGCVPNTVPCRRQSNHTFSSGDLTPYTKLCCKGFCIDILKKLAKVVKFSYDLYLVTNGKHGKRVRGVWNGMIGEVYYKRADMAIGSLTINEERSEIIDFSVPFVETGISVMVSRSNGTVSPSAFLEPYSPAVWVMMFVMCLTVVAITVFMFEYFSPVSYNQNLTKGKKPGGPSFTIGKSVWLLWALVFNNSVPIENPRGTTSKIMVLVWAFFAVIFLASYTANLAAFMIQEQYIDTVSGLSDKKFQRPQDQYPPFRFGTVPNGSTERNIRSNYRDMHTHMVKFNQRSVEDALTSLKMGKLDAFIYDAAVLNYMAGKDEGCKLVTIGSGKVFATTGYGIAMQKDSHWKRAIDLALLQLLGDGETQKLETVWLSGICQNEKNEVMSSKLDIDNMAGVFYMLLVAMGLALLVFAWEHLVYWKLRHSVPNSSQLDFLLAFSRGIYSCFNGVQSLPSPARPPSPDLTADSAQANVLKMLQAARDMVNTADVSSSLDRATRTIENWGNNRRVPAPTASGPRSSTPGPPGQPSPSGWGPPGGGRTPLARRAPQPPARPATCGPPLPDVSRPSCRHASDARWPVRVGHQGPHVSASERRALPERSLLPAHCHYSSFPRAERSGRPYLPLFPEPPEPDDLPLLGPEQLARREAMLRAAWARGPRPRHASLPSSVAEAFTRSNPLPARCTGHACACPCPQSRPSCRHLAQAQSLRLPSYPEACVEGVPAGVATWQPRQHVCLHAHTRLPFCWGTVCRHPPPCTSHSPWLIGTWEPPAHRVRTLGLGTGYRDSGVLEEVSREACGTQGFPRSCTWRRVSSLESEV

Q: With `C[C@H](C[C@H](N)C(=O)O)C(=O)O` [2S,4R-4-METHYLGLUTAMATE] as the compound, how does the IC50 read?
A: > 7 µM
